Data as given in article PMC12249711, “Comprehensive Evaluation of 1H-Isoindole-1,3(2H)-Dione Derivatives: Pharmacokinetic Studies and Analgesic Potential in Various Pain Models” (International Journal of Molecular Sciences, 2025).
Like-named read-outs stand apart in the source and are kept apart here.

Assays:
[1] = Pharmacokinetic study after single i.p. administration, serum and brain concentrations by LC-MS/MS, non-compartmental analysis; assay type: in vivo, Albino Swiss mice; conditions: mice; for Kp: brain/serum, read-out: Kbrain/serum (brain/serum partitioning coefficient); for Kp / MRT / Tmax / half-life / k el / CL/F / Vd/F / AUC0-inf / AUC0–8h: 5 mg/kg i.p.; for half-life: read-out: t1/2(λz) half-life in the elimination phase (converted); for k el: read-out: λz (terminal elimination rate constant) (converted); for Vd/F: read-out: Vz/F
Protocol: The compounds F1, F2, F3, and F4 were suspended in a 1% Tween 80 solution in sterile water for injection and given to mice i.p. at a dose of 5 mg/kg (n = 3 per time point; all mice in procedure = 96) as a single injection at a volume of 10 mL/kg. At specific time points (5; 15; 30; 60; 120; 240; 360; and 480 min after compound administration), mice were sacrificed by decapitation under isoflurane (5%) anesthesia to harvest blood and brain for assays. After allowing the blood to coagulate for 20 min at room temperature, blood samples were centrifuged for 10 min at 8000 rpm (Eppendorf miniSpin centrifuge) to obtain serum. Moreover, brains were removed (at the same time point) from skulls and washed with 0.9% NaCl. The obtained serum and brains were stored at −80 °C until analysis.
Concentrations of compounds F1 to F4 in mice brains and serum were measured by the liquid chromatography tandem mass spectrometry (LC-MS/MS) method using a Sciex QTRAP 4500 triple quadrupole mass spectrometer coupled to an Excion LC AC HPLC system (both from Danaher Corporation, Washington, DC, USA). The brains were homogenized in distilled water at the ratio of 1:4 (w/v) with a tissue homogenizer ULTRA-TURRAX T10 basic (IKA, Königswinter, Germany). The stock solutions of analyzed compounds were prepared in methanol at the concentration of 1 mg/mL. For the preparation of calibration curves, working standard solutions were prepared in methanol by the serial dilution of the stock solution at the following concentrations: 0.005; 0.01; 0.1; 0.25; 0.5; 1; 2.5; 5; and 10 µg/mL. To prepare samples for the calibration curve, 45 μL of matrix (blank plasma or brain homogenate) was spiked with 5 μL of standard working solution at an appropriate concentration level and vortexed for 10 s. Brain homogenates or serum samples (50 µL) as well as calibration samples were deproteinized with 150 μL of 0.1% formic acid in acetonitrile with an addition of internal standard (valsartan), shaken for 10 min (IKA Vibrax VXR, Königswinter, Germany), and centrifuged for 5 min at a speed of 8000× g (Eppendorf miniSpin centrifuge, Hamburg, Germany). Then, brain or serum supernatants were transferred into the autosampler vials. The autosampler temperature was maintained at 15 °C and a sample volume of 1 μL was injected into the LC-MS/MS system.
Chromatographic separation was carried out on the Hypersil GoldTM C18 analytical column (2.1 × 50 mm, 3 µm, Thermo Scientific, Waltham, MA, USA) with the oven temperature set at 30 °C. The mobile phase containing 0.1% formic acid in acetonitrile and 0.1% formic acid in water was delivered at a flow rate of […] in the gradient mode. Electrospray ionization (ESI) in the positive ion mode was used for ion production. The tandem mass spectrometer was operated at unit resolution in the selected reaction monitoring mode (SRM), monitoring the transitions of the protonated molecular ions m/z 366 to 201 (CE = 40 eV) and m/z 366 to 160 (CE = 40 eV) for compound F1, m/z 396 to 190 (CE = 39 eV) and m/z 396 to 160 (CE = 49 eV) for compound F2, m/z 434 to 145 (CE = 95 eV) and m/z 434 to 160 (CE = 47 eV) for compound F3, and m/z 456 to 167 (CE = 27 eV) and m/z 456 to 152 (CE = 85 eV) for compound F4. The first pair was used as a quantifier and the second for the identity verification—qualifier. One pair (m/z 436 to 235; CE = 42 eV) was monitored for valsartan used as an internal standard. The mass spectrometric conditions were optimized by continuous infusion of the standard solutions at the rate of 7 μL/min using a Harvard infusion pump (Harvard Apparatus, Holliston, MA, USA). The ion source temperature was maintained at 450 °C and the ion spray voltage was set at 4500 V. The curtain gas (CUR) was set at 40 and the collision gas (CAD) at Medium. The calibration curves were constructed by plotting the ratio of the peak area of the studied compound to internal standard (IS) versus drug concentration and generated by weighted (1/x·x) linear regression analysis. […]

[2] = system: mice; assay: Oxaliplatin-induced neuropathic pain, von Frey test (tactile allodynia); assay type: in vivo, Albino Swiss mice; conditions: 10 mg/kg i.p.
Protocol: Furthermore, to assess the response to mechanical stimuli (i.e., tactile/mechanical) allodynia), the von Frey test was carried out with application of the electronic von Frey unit (Panlab, Cornellà de Llobregat, Spain) equipped with a fiber, the distal end of which was applied to the right hind paw of the mouse. The device automatically recorded the pressure force (in grams) applied until the paw withdrawal response occurred. In the absence of pain, an increase in the pressure value was observed. The force at which the animal withdrew its paw was considered the pain threshold for the mechanical stimulus. Measurements were taken before streptozotocin administration (in normoglycemic mice) and again 21 days later, both before and after compound administration, in diabetic mice (glucose level > 300 mg/dL) that had developed mechanical allodynia. On the day of the experiment, each mouse was placed in an observation chamber with a wire mesh bottom and was allowed to habituate for 1 h. After the habituation period, in order to obtain baseline values, each mouse was tested 3 times alternately in each hind paw, allowing at least 30 s between each measurement. Then, the mice were pretreated intraperitoneally with compound or vehicle, and 30 min later the animals were tested again and three measurements were taken, the mean of which was calculated to obtain the mean values after drug administration for each mouse. The anti-allodynic effect was defined as an increase in the pressure force value required to elicit a pain response, compared to the control group.
To assess the response to mechanical stimuli (i.e., tactile/mechanical allodynia), the von Frey test was performed using an electronic von Frey device (Bioseb, Vitrolles, France), as described in Section 4.4.5. In this assay, measurements were taken before and 3 h after oxaliplatin administration, as well as 7 days later. […] A total of 30 min after administration, the assessment was repeated using the same procedure.

[3] = Albino Swiss, mouse, ip, serum, 5 min after 5 mg/kg i.p., read-out: Cmax (maximal concentration)
[4] = brain, 5 mg/kg i.p. single dose
[5] = serum, 5 mg/kg i.p. single dose
[6] = early phase, 3 h after oxaliplatin
[7] = late phase, 7 days after oxaliplatin

Row | Kp ([1]; Albino Swiss, mouse, ip) | MRT ([1]; Albino Swiss, mouse, ip, brain) | Tmax ([1]; Albino Swiss, mouse, ip, brain) | half-life ([1]; Albino Swiss, mouse, ip, brain) | k el ([1]; Albino Swiss, mouse, ip, brain) | Cmax [1, 3] | CL/F ([1]; Albino Swiss, mouse, ip, serum) | MRT ([1]; Albino Swiss, mouse, ip, serum) | Tmax ([1]; Albino Swiss, mouse, ip, serum) | Vd/F ([1]; Albino Swiss, mouse, ip, serum) | half-life ([1]; Albino Swiss, mouse, ip, serum) | k el ([1]; Albino Swiss, mouse, ip, serum) | AUC0-inf ([1]; brain) | AUC0–8h ([1]; brain) | Cmax [1, 4] | AUC0-inf ([1]; serum) | AUC0–8h ([1]; serum) | Cmax [1, 5] | Compound | Analgesic activity (von Frey) [2, 6] | Pain threshold after compound administration (von Frey) [2, 6] | other results
1 | 1.77 | 81.6 min | 4.98 min | 54.6 min | 0.000211 s⁻¹ | 0.596 µg/mL | 23.7 L/h/kg | 79.2 min | 4.98 min | 32.6 L/kg | 57 min | 0.000203 s⁻¹ | 374.60 µg∙h/L(kg) | 368.04 µg∙h/L(kg) | 970 µg/L(kg) | 211.22 µg∙h/L(kg) | 205.95 µg∙h/L(kg) | 595.75 µg/L(kg) | O=C1c2ccccc2C(=O)N1CC(O)CN1CCN(c2ccccc2)CC1 (stereo not shown) [Compound F1] | 60.7% | 3.39 ± 0.46 g | Analgesic activity (von Frey) [2, 7]: 35%; Pain threshold after compound administration (von Frey) [2, 7]: 3.9 ± 0.34 g
2 | 0.79 | 84.6 min | 4.98 min | 54 min | 0.000214 s⁻¹ | 0.7 µg/mL | 16.8 L/h/kg | 68.4 min | 4.98 min | 18.2 L/kg | 45 min | 0.000256 s⁻¹ | 237.16 µg∙h/L(kg) | 230.83 µg∙h/L(kg) | 465.38 µg/L(kg) | 298.26 µg∙h/L(kg) | 292.78 µg∙h/L(kg) | 699.75 µg/L(kg) | COc1ccccc1N1CCN(CC(O)CN2C(=O)c3ccccc3C2=O)CC1 (stereo not shown) [Compound F2] | 81% | 3.91 ± 0.29 g | Analgesic activity (von Frey) [2, 7]: 45.45%; Pain threshold after compound administration (von Frey) [2, 7]: 4.0 ± 0.34 g
3 | 2.05 | 190 min | 15 min | 78.6 min | 0.000147 s⁻¹ | 0.21 µg/mL | 17.8 L/h/kg | 168 min | 4.98 min | 32.4 L/kg | 75.6 min | 0.000153 s⁻¹ | 573.90 µg∙h/L(kg) | 520.05 µg∙h/L(kg) | 202.25 µg/L(kg) | 280.26 µg∙h/L(kg) | 258.81 µg∙h/L(kg) | 210.25 µg/L(kg) | O=C1c2ccccc2C(=O)N1CC(O)CN1CCN(c2cccc(C(F)(F)F)c2)CC1 (stereo not shown) [Compound F3] | 82.9% | 3.53 ± 0.08 g | Analgesic activity (von Frey) [2, 7]: 37.59%; Pain threshold after compound administration (von Frey) [2, 7]: 3.99 g
4 | 1.62 | 97.8 min | 15 min | 46.8 min | 0.000247 s⁻¹ | 0.131 µg/mL | 48 L/h/kg | 88.2 min | 4.98 min | 55.8 L/kg | 48 min | 0.000239 s⁻¹ | 168.99 µg∙h/L(kg) | 164.50 µg∙h/L(kg) | 163.5 µg/L(kg) | 104.12 µg∙h/L(kg) | 101.99 µg∙h/L(kg) | 130.58 µg/L(kg) | O=C1c2ccccc2C(=O)N1CC(O)CN1CCN(C(c2ccccc2)c2ccccc2)CC1 (stereo not shown) [Compound F4] | 76.2% | 3.56 ± 0.32 g | Analgesic activity (von Frey) [2, 7]: 24.39%; Pain threshold after compound administration (von Frey) [2, 7]: 3.57 ± 0.33 g
